Experimental data as given in US20260022143A1, “Cyclic Peptide Inhibitors of IL-23” (JANSSEN PHARMACEUTICA NV, priority 2022, published 2026).
Positions of bridges follow the written chain, without caps; N, C: chain ends. Non-standard residues stand in square brackets, D forms with d. Residues, ends and D or L forms follow the SMILES beside them. *: point of attachment. Trp(7-(3-AcNH-Ph)) = CC(=O)Nc1cccc(-c2cccc3c(C[C@H](N)C(=O)O)c[nH]c23)c1; Me3N+(CH2)2O(CH2)2O(CH2)2CO = C[N+](C)(C)CCOCCOCCC(=O)*; CH2CH2OCH2CH2OCH2CH2NMe3+ = C[N+](C)(C)CCOCCOCC*; Trp(7-Me) = Cc1cccc2c(C[C@H](N)C(=O)O)c[nH]c12; dLys(Me3) = C[N+](C)(C)CCCC[C@@H](N)C(=O)O; 2Nal = N[C@@H](Cc1ccc2ccccc2c1)C(=O)O; 3Pal = N[C@@H](Cc1cccnc1)C(=O)O; Ethyl(2-guanidino) = N=C(N)NCC*; Lys(Me) = CNCCCC[C@H](N)C(=O)O; Pen = CC(C)(S)[C@H](N)C(=O)O; Thp = NC1(C(=O)O)CCOCC1; X3 = C[N+](C)(C)CCCCC*; Sar = CNCC(=O)O

Columns and labels:
[1] = target: T1, IL-23R (Homo sapiens, UniProt Q5VWK5); test: IL23R Reporter Assay; format: cell-based; conditions: HEK293 cells containing IL-23R, IL-12RP1 and STAT-inducible firefly luciferase reporter; 10 ng/mL IL-23 (EC90); 5 h at 37° C.; read-out: IL23R Reporter Assay
T1 construct: host or cells: HEK293
T1 sequence (Q5VWK5 24-629): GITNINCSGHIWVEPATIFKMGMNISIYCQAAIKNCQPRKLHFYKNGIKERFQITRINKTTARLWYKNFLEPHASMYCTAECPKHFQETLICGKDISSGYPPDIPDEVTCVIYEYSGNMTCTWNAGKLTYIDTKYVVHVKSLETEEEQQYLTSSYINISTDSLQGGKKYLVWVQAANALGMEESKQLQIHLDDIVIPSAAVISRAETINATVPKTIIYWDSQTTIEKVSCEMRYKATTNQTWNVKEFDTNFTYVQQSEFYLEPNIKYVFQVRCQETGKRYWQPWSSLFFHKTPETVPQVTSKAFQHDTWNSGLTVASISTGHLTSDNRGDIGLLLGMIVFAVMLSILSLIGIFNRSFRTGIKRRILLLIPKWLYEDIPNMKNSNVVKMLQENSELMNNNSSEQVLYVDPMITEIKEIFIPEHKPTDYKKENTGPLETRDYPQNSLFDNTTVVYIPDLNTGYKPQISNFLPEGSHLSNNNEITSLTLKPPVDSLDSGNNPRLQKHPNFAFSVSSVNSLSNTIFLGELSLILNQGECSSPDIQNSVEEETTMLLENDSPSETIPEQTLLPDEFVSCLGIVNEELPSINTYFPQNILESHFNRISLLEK

[2] = Exposed Polar Surface Area (EPSA); format: physicochemical; conditions: SFC on Chirex 3014 column; sample 1 mM DMSO stock; read-out: EPSA
Method in brief: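 SFC retention on a Chirex 3014 (S-valine/(R)-1-(α-naphthyl)ethylamine) column at 35 °C, 4 mL/min, 14 MPa outlet, 5–60% methanol/20 mM ammonium formate gradient in CO2. Retention times converted to EPSA (Å²) via linear calibration with 8 standards; samples from 1 mM DMSO stock, run in duplicate.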

SMILES | IC50 [1] [nM] | EPSA [2] [A^2]
CC(=O)N(C)CCCC[C@H](NC(=O)C1(NC(=O)[C@H](Cc2ccc3ccccc3c2)NC(=O)[C@H](Cc2ccc(OCCOCCOCC[N+](C)(C)C)cc2)NC(=O)[C@H]2NC(=O)[C@H](CCCCNC(=O)CCOCCOCC[N+](C)(C)C)NC(=O)[C@H](Cc3c[nH]c4c(C)cccc34)NC(=O)[C@H]([C@@H](C)O)NC(=O)[C@H](CC(=O)N(C)C)NC(=O)[C@@H](NC(=O)CCOCCOCC[N+](C)(C)C)C(C)(C)SSC2(C)C)CCOCC1)C(=O)N[C@@H](CC(N)=O)C(=O)N[C@@H](Cc1cccnc1)C(=O)N(C)CC(=O)N(C)C [compound 544, cPEG3aCO-Pen(3)-N(N(Me)2)-T-7MeW-K(cPEG3aCO)-Pen(3)-APEG3F-2Nal-THP-K(NMeAc)-N-3Pya-Sar-CON(Me)2] ({Me3N+(CH2)2O(CH2)2O(CH2)2CO}-[Pen]D(NMe2)T[Trp(7-Me)]K(Me3N+(CH2)2O(CH2)2O(CH2)2CO)[Pen]Y(CH2CH2OCH2CH2OCH2CH2NMe3+)[2Nal][Thp][Lys(Me)](Ac)N[3Pal][Sar]-NMe2; disulfide 1-6) | 2 | 157
CC(=O)NCCCC[C@@H]1NC(=O)[C@H](Cc2c[nH]c3c(C)cccc23)NC(=O)[C@H]([C@@H](C)O)NC(=O)[C@H](CC(N)=O)NC(=O)[C@@H](NC(C)=O)C(C)(C)SSC(C)(C)[C@@H](C(=O)N[C@@H](Cc2ccc(OCCCCC[N+](C)(C)C)cc2)C(=O)N[C@@H](Cc2ccc3ccccc3c2)C(=O)NC2(C(=O)N[C@@H](CCCCNC(=O)CCCCCc3ccc(I)cc3)C(=O)N[C@@H](CC(N)=O)C(=O)N[C@@H](Cc3cccnc3)C(=O)N(C)CC(N)=O)CCOCC2)NC1=O [compound 546, MeCO-Pen(3)-N-T-7MeW-K(Ac)-Pen(3)-TMAPF-2Nal-THP-K(IPB)-N-3Pya-Sar-CONH2] | 7.2 | 168
CC(=O)NCCCC[C@@H]1NC(=O)[C@H](Cc2c[nH]c3c(C)cccc23)NC(=O)[C@H]([C@@H](C)O)NC(=O)[C@H](CC(N)=O)NC(=O)[C@@H](NC(=O)CCCc2ccc(I)cc2)C(C)(C)SSC(C)(C)[C@@H](C(=O)N[C@@H](Cc2ccc(OCCCCC[N+](C)(C)C)cc2)C(=O)N[C@@H](Cc2ccc3ccccc3c2)C(=O)NC2(C(=O)N[C@@H](CCCCNC(C)=O)C(=O)N[C@@H](CC(N)=O)C(=O)N[C@@H](Cc3cccnc3)C(=O)N(C)CC(N)=O)CCOCC2)NC1=O [compound 547, IPBCO-Pen(3)-N-T-7MeW-K(Ac)-Pen(3)-TMAPF-2Nal-THP-K(Ac)-N-3Pya-Sar-CONH2] | 4.6 | 168
CC(=O)N(C)CCCC[C@@H]1NC(=O)[C@H](C)NC(=O)[C@H]([C@@H](C)O)NC(=O)[C@H](CC(=O)N(C)C)NC(=O)[C@@H](NC(=O)CCOCCOCC[N+](C)(C)C)C(C)(C)SSC(C)(C)[C@@H](C(=O)N[C@@H](Cc2ccc(OCCOCCOCC[N+](C)(C)C)cc2)C(=O)N[C@@H](C)C(=O)NC2(C(=O)N[C@@H](CCCCN(C)C(C)=O)C(=O)N[C@@H](CC(N)=O)C(=O)N[C@@H](Cc3cccnc3)C(=O)N(C)CC(=O)N(C)C)CCOCC2)NC1=O [compound 557, cPEG3aCO-Pen(3)-N(N(Me)2)-T-A-K(NMeAc)-Pen(3)-APEG3F-A-THP-K(NMeAc)-N-3Pya-Sar-CON(Me)2] ({Me3N+(CH2)2O(CH2)2O(CH2)2CO}-[Pen]D(NMe2)TA[Lys(Me)](Ac)[Pen]Y(CH2CH2OCH2CH2OCH2CH2NMe3+)A[Thp][Lys(Me)](Ac)N[3Pal][Sar]-NMe2; disulfide 1-6) | > 16600 | 139
CC(=O)NCCCC[C@@H]1NC(=O)[C@H](Cc2c[nH]c3c(C)cccc23)NC(=O)[C@H]([C@@H](C)O)NC(=O)[C@H](CC(N)=O)NC(=O)[C@@H](NC(=O)[C@@H](CCCNC(=N)N)NC(C)=O)C(C)(C)SSC(C)(C)[C@@H](C(=O)N[C@@H](Cc2ccc(OCCCCC[N+](C)(C)C)cc2)C(=O)N[C@@H](Cc2ccc3ccccc3c2)C(=O)NC2(C(=O)N[C@@H](CCCCNC(C)=O)C(=O)N[C@@H](CC(N)=O)C(=O)N[C@@H](Cc3cccnc3)C(=O)N(C)CC(N)=O)CCOCC2)NC1=O [compound 558, MeCO-r-Pen(3)-N-T-7MeW-K(Ac)-Pen(3)-TMAPF-2Nal-THP-K(Ac)-N-3Pya-Sar-CONH2] (Ac-[dR][Pen]NT[Trp(7-Me)]K(Ac)[Pen]Y(X3)[2Nal][Thp]K(Ac)N[3Pal][Sar]-NH2; disulfide 2-7) | 4.1 | 174

Second part, the compound after the results:

IC50 [1] [nM] | EPSA [2] [A^2] | SMILES
3.4 | 154 | CNC(=O)C[C@H](NC(=O)[C@H](CCCCN(C)C(C)=O)NC(=O)C1(NC(=O)[C@H](Cc2ccc3ccccc3c2)NC(=O)[C@H](Cc2ccc(OCCCCC[N+](C)(C)C)cc2)NC(=O)[C@H]2NC(=O)[C@H](CCCCN(C)C(C)=O)NC(=O)[C@H](Cc3c[nH]c4c(C)cccc34)NC(=O)[C@H]([C@@H](C)O)NC(=O)[C@H](CC(=O)N(C)C)NC(=O)[C@@H](NC(=O)CCOCCOCC[N+](C)(C)C)C(C)(C)SSC2(C)C)CCOCC1)C(=O)N[C@@H](Cc1cccnc1)C(=O)N(C)CC(=O)N(C)C [compound 560, cPEG3aCO-Pen(3)-N(N(Me)2)-T-7MeW-K(NMeAc)-Pen(3)-TMAPF-2Nal-THP-k(NMeAc)-N(NMe)-3Pya-Sar-CON(Me)2] ({Me3N+(CH2)2O(CH2)2O(CH2)2CO}-[Pen]D(NMe2)T[Trp(7-Me)][Lys(Me)](Ac)[Pen]Y(X3)[2Nal][Thp][Lys(Me)](Ac)D(NHMe)[3Pal][Sar]-NMe2; disulfide 1-6)
1.5 | 194 | CC(=O)NCCCC[C@@H]1NC(=O)[C@H](Cc2c[nH]c3c(-c4cccc(NC(C)=O)c4)cccc23)NC(=O)[C@H]([C@@H](C)O)NC(=O)[C@H](CC(N)=O)NC(=O)[C@@H](NC(=O)[C@@H](CCCC[N+](C)(C)C)NC(C)=O)C(C)(C)SSC(C)(C)[C@@H](C(=O)N[C@@H](Cc2ccc(OCCNC(=N)N)cc2)C(=O)N[C@@H](Cc2ccc3ccccc3c2)C(=O)NC2(C(=O)N[C@@H](CCC(=O)O)C(=O)N[C@@H](CC(N)=O)C(=O)N[C@@H](Cc3cccnc3)C(=O)N(C)CC(N)=O)CCOCC2)NC1=O [compound 563, MeCO-k(Me)3-Pen(3)-N-T-7(3NAcPh)W-K(Ac)-Pen(3)-AEF(G)-2Nal-THP-E-N-3Pya-Sar-CONH2] (Ac-[dLys(Me3)][Pen]NT[Trp(7-(3-AcNH-Ph))]K(Ac)[Pen]Y(Ethyl(2-guanidino))[2Nal][Thp]EN[3Pal][Sar]-NH2; disulfide 2-7)
180 | 153 | CC(=O)N(C)CCCC[C@@H]1NC(=O)[C@H](Cc2c[nH]c3ccccc23)NC(=O)[C@H]([C@@H](C)O)NC(=O)[C@H](CC(=O)N(C)C)NC(=O)[C@@H](NC(=O)CCOCCOCC[N+](C)(C)C)C(C)(C)SSC(C)(C)[C@@H](C(=O)N[C@@H](Cc2ccc(OCCOCCOCC[N+](C)(C)C)cc2)C(=O)N[C@@H](Cc2c[nH]c3ccccc23)C(=O)NC2(C(=O)N[C@@H](CCCCN(C)C(C)=O)C(=O)N[C@@H](CC(N)=O)C(=O)N[C@H]3Cc4cnccc4N(CC(=O)N(C)C)C3=O)CCOCC2)NC1=O [compound 564, cPEG3aCO-Pen(3)-N(N(Me)2)-T-W-K(NMeAc)-Pen(3)-APEG3F-W-THP-K(NMeAc)-N-3Pya-Sar-CON(Me)2]
> 16600 | 144 | CC(=O)N(C)CCCC[C@@H]1NC(=O)[C@H](Cc2ccccc2)NC(=O)[C@H]([C@@H](C)O)NC(=O)[C@H](CC(=O)N(C)C)NC(=O)[C@@H](NC(=O)CCOCCOCC[N+](C)(C)C)C(C)(C)SSC(C)(C)[C@@H](C(=O)N[C@@H](Cc2ccc(OCCOCCOCC[N+](C)(C)C)cc2)C(=O)N[C@@H](Cc2ccccc2)C(=O)NC2(C(=O)N[C@@H](CCCCN(C)C(C)=O)C(=O)N[C@@H](CC(N)=O)C(=O)N[C@@H](Cc3cccnc3)C(=O)N(C)CC(=O)N(C)C)CCOCC2)NC1=O [compound 565, cPEG3aCO-Pen(3)-N(N(Me)2)-T-F-K(NMeAc)-Pen(3)-APEG3F-F-THP-K(NMeAc)-N-3Pya-Sar-CON(Me)2] ({Me3N+(CH2)2O(CH2)2O(CH2)2CO}-[Pen]D(NMe2)TF[Lys(Me)](Ac)[Pen]Y(CH2CH2OCH2CH2OCH2CH2NMe3+)F[Thp][Lys(Me)](Ac)N[3Pal][Sar]-NMe2; disulfide 1-6)
> 3320 | 137 | CC(=O)N(C)CCCC[C@@H]1NC(=O)[C@H](CC(C)C)NC(=O)[C@H]([C@@H](C)O)NC(=O)[C@H](CC(=O)N(C)C)NC(=O)[C@@H](NC(=O)CCOCCOCC[N+](C)(C)C)C(C)(C)SSC(C)(C)[C@@H](C(=O)N[C@@H](Cc2ccc(OCCOCCOCC[N+](C)(C)C)cc2)C(=O)N[C@@H](CC(C)C)C(=O)NC2(C(=O)N[C@@H](CCCCN(C)C(C)=O)C(=O)N[C@@H](CC(N)=O)C(=O)N[C@@H](Cc3cccnc3)C(=O)N(C)CC(=O)N(C)C)CCOCC2)NC1=O [compound 566, cPEG3aCO-Pen(3)-N(N(Me)2)-T-L-K(NMeAc)-Pen(3)-APEG3F-L-THP-K(NMeAc)-N-3Pya-Sar-CON(Me)2] ({Me3N+(CH2)2O(CH2)2O(CH2)2CO}-[Pen]D(NMe2)TL[Lys(Me)](Ac)[Pen]Y(CH2CH2OCH2CH2OCH2CH2NMe3+)L[Thp][Lys(Me)](Ac)N[3Pal][Sar]-NMe2; disulfide 1-6)
